The source of these data is patent US6020374A, “Biologically active synthetic dye compounds” (priority 1998, dated 2000).

Holding throughout (format): cell-based
Data set [1] concerns MAPK-1 (44 kDa) and MAPK-2 (42 kDa). Put plainly: Activation of MAPKs in MCF-7 cells (anti-active MAPK immunoblot). Conditions: 5 mins., ATA, EB each at 300 μg/ml, IGF-1 20 or 40 ng/ml. As to the method: FIG. 7 is the effect of ATA and EB on activation of MAPKs: MCF-7 cells were treated for 5 mins. with ATA, EB, each at 300 μg/ml, 20 ng/ml or 40 ng/ml IGF-1. Cell lysates, solubilized in Buffer C, were subjected to 12% SDS-PAGE and immunoblotted with an anti-active MAPK antibody. The membrane, after ECL detection, was stripped of bound antibody and blotted with an anti-MAPK antibody.
(§1) Nitrocellulose blots of proteins were incubated with the antibodies, and proteins were detected by enhanced chemiluminescence using horseradish peroxidase-labeled protein A, horseradish peroxidase-labeled anti rabbit IgG or horseradish peroxidase-labeled anti-mouse IgG.
The activated forms of MAPKs were detected by anti-active MAPK immunoblotting in the MCF-7 cell's lysates. […] Blotting with anti MAPKs antibodies confirms that similar amounts of MAPKs were present in treated and non-treated cells.

Data set [2] concerns 185 kDa protein(s) (p185). Briefly: Tyrosine phosphorylation of p185 in MCF-7 cells (anti-phosphotyrosine immunoblot). As to the method: FIG. 1 is the effect of ATA and EB on tyrosine phosphorylation: MCF-7 cells, grown in 35 mm dishes were solubilized in Buffer A (a) or Buffer B (b-c). The solubilized cells were subjected to 7.5% SDS-PAGE and immunoblotted with an anti-phosphotyrosine antibody. (a) Cells treated for 5 mins. with ATA, EB, each at 300 μg/ml, IGF-1 at 20 ng/ml, or without additives (CON); (b) Cells treated with 300 μg/ml ATA for the indicated times; (c) Cells treated with 30 μg/ml EB for the indicated times; (d) Cells treated for 5 mins. with the indicated concentrations of ATA; (e) Cells treated for 5 mins. with the indicated concentrations of EB. Molecular mass markers (in kDa) are indicated on the right.
FIG. 2 is the effect of ATA and vanadate on the IGF-1 stimulated tyrosine phosphorylation of p185: A--Cells treated for 5 mins. with the indicated concentrations of IGF-1 in the presence or absence of 300 μg/ml ATA; B--Cells pre-incubated for 3 hours with or without 50 μM vanadate were incubated for 5 mins. with ATA, EB each at 300 μg/ml or with 10 ng/ml IGF-1 in the presence or absence of vanadate. Cytosols extracted in Buffer B were analyzed by immunoblotting with anti-phosphotyrosine antibody as in FIG. 1.
FIG. 8 is the effect of fractionated ATA on p185 phosphorylation: A--Crude ATA was separated on a Bio-Rad P-4 column and the combined void volume was then gel filtrated on a column of Bio-Rad P-10. The column was calibrated with the following molecular weight markers: DB-Dextran blue; CC-cytochrome C: Ins-insulin; B12-Vitamin B12. B--MCF-7 cells were incubated for 5 mins. with the indicated fractions of ATA (eluted from the P-10 column shown in A), crude ATA, each at 200 μg/ml or IGF-1 at 20 ng/ml. Cytosols, solubilized in Buffer B were subjected to 7.5% SDS-PAGE and immunoblotted with phosphotyrosine antibody.
(§2) MCF-7 cells were grown in 35 or 100 mm dishes in DMEM with 5% bovine fetal serum. Rat hepato FaO cells were grown in RPMI 1640 medium supplemented with 10% fetal calf serum. Subconfluent monolayers of MCF-7 cells or FaO cells, were deprived of serum for 20 hours prior to each experiment. The medium was removed, and cells were incubated at 37° C. under the conditions as indicated for each experiment. The reaction was terminated by removing the medium and freezing the monolayers with liquid nitrogen. In some experiments, cells were preincubated with 50 μM sodium orthovanadate for 3 hours.
Cells were solubilized at 4° C. with 0.2 ml/35 mm dish or 2 ml/100 mm dish of the indicated buffer. The solubilized cells were scraped and sedimented by centrifugation at 12,000×g for 30 mins. at 4° C. Aliquots of the supernatants were normalized for protein, mixed with concentrated (5×) Laemmli sample buffer, boiled for 10 mins. and resolved on 7.5 or 12% SDS-PAGE under reducing conditions.
as §1

A further data set concerns MCF-7 cells. Put plainly: Cell death estimation, cycloheximide-exposed MCF-7 cells (trypan blue). Conditions: for Percent dead cells: 48 hours. As for the experimental part:
Subconfluent cultures of MCF-7 cells in 35 mm dishes, were deprived of serum for 20 hours and then exposed to 30 μg/ml cycloheximide in the presence or absence of increasing concentrations of fractionated ATA, crude ATA or EB. After 48 hours, the cells were detached with trypsin. The medium and the detached cells were pooled and centrifuged at 1000×g for 10 mins. Cell viability was estimated by adding an equivalent volume of trypan blue solution to an aliquot of suspended cells. Stained and unstained cells were counted on a hemocytometer (10^3 cells were counted for each determination).
Subconfluent, 20 hours starved MCF-7 cells were exposed to 30 μg/ml
of cycloheximide in the presence of increasing
concentrations of fractionated ATA (0, 6, 12, 25, 50 μg/ml). After
48 hours, percent of dead cells was
determined as described under "Experimental procedures". In the
presence of cycloheximide only, 60-70% of
the cells were dead after 48 hours.
Cultures of […] cells were exposed to 30 μg CX for 48 hours in the presence of EB, ATA, IGF-1, or nothing.

A further data set has as its system IRS-1. Put plainly: IRS-1 tyrosine phosphorylation and association with p85/Grb2 in MCF-7 cells. Conditions: 5 mins., ATA or EB 300 μg/ml, IGF-1 20 ng/ml. As to the method: FIG. 3 is the effect of ATA and EB on tyrosine phosphorylation or IRS-1: MCF-7 cells grown in 100 mm dishes, were treated with ATA or EB, each at 300 μg/ml, or 20 ng/ml IGF-1 for 5 mins. Total cell extracts, solubilized in Buffer A, were subjected to immunoprecipitation with antibodies to IRS-1 (a) or Grb2 (b). The immunocomplexes, precipitated with protein G-Sepharose beads, were subjected to 7.5% SDS-PAGE followed by immunoblotting with a phosphotyrosine antibody, an antibody to the 85-kDa subunit of PI3-kinase or antibody to IRS-1.
(§3) Cells were solubilized in Buffer A or C. Extracts were immunoprecipitated at 4° C. with antibodies to IRS-1, IRS-2, IGF-1 or IR receptor or Grb2, adsorbed on protein A-Sepharose beads. The immunocomplexes were pelleted by centrifugation at 12,000×g and washed twice with Buffer A, and twice with Buffer A containing 0.1% Triton x-100. The pellets were then suspended in Laemmli sample buffer and resolved on 7.5% SDS-PAGE.
as §1
(§4) MCF-7 cells were stimulated with ATA, EB or IGF-1, solubilized and immunoprecipitated with anti IRS-1 or IRS-2 antibodies, separated by SDS-PAGE and immunoblotted with anti-phosphotyrosine antibody. […] The association of IRS-1 with Grb-2 was evaluated in lysates from treated cells which were immunoblotted with antibodies to either phosphotyrosine or IRS-1.

For another data set, the system named is IRS-2. Put plainly: IRS-2 association with p85 of PI3-kinase in MCF-7 cells. The note with it: 5 mins., ATA or EB 300 μg/ml, IGF-1 20 ng/ml. As for the experimental part: FIG. 4 is the effect of ATA and EB on tyrosine phosphorylation of IRS-2: MCF-7 cells were treated as in FIG. 3. Total cell extracts, solubilized in Buffer C, were immunoprecipitated with an antibody to IRS-2. The immunocomplexes, precipitated with protein A-Sepharose beads were subjected to 7.5% SDS-PAGE, followed by immunoblotting with a phosphotyrosine antibody and an antibody to the 85-kDA subunit of PI3-kinase.
as §3, §1, §4

The next data set has as its target T1, IR (Rattus norvegicus, UniProt P15127).
T1 construct: determined in the rat hepatoma cell line FaO; endogenous in cells; host or cells: FaO (rat hepatoma)
Briefly: Tyrosine phosphorylation of IR in FaO cells. Conditions: 3 hour preincubation with vanadate, 5 min. incubations with EB and insulin. As to the method:
FIG. 9 is the tyrosine phosphorylation of the IR cascade in Fao cells: A--Immunoblot analysis: Fao cells were deprived of serum for 20 hours, then incubated with EB, ATA, at 200 μg/ml or insulin at 600 ng/ml for 5 mins. Cell extracts were subjected to immunoprecipitation with antibodies to: IR β-subunit (αIR), IRS-1 (αIRS-1) and to IRS-2 (αIRS-2). The immunoprecipitates and total cell extracts were analyzed by SDS-PAGE. Proteins were transferred to nitrocellulose papers, and phosphotyrosine containing proteins were probed with anti-phosphotyrosine antibodies (αP-Tyr), antibody to the 85-kDa subunit of PI3-kinase (αp85) and antibodies to active MAPK (α active MAPK). The immunoblots were visualized by ECL (Amersham).
B--Kinetics of IR phosphorylation: Cells were treated either with 200 μg/ml EB for the indicated times (top panel) or with the indicated concentrations of EB for 5 mins. (middle panel). A 3 hour preincubation with vanadate preceded the 5 min. incubations with EB and insulin (bottom panel).
as §2, §3, §1
The ability of EB and ATA to phosphorylate the IR was determined in the rat hepatoma cell line FaO. […] Phosphorylation is maximal after a 1 min. exposure to 70 μg/ml of EB (FIG. 9B, top and middle panels).

T1 sequence (P15127 764-1383 limits assumed): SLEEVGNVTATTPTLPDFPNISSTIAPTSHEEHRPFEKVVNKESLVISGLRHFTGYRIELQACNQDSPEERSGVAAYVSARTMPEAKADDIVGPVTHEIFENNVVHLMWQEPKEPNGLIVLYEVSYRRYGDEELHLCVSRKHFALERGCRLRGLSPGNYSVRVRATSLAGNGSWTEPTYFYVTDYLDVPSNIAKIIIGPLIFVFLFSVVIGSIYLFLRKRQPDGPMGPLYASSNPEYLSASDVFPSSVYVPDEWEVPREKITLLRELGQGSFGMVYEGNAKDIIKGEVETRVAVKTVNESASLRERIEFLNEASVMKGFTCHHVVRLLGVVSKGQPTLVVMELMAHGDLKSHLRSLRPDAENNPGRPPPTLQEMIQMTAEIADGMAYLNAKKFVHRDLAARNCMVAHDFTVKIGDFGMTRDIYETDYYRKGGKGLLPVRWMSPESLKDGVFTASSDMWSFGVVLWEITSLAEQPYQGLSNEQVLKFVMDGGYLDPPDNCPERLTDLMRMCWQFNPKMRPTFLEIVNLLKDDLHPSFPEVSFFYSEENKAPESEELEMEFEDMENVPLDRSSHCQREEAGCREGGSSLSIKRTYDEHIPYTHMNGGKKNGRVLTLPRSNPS
T1 sequence (P15127 27-759 limits assumed): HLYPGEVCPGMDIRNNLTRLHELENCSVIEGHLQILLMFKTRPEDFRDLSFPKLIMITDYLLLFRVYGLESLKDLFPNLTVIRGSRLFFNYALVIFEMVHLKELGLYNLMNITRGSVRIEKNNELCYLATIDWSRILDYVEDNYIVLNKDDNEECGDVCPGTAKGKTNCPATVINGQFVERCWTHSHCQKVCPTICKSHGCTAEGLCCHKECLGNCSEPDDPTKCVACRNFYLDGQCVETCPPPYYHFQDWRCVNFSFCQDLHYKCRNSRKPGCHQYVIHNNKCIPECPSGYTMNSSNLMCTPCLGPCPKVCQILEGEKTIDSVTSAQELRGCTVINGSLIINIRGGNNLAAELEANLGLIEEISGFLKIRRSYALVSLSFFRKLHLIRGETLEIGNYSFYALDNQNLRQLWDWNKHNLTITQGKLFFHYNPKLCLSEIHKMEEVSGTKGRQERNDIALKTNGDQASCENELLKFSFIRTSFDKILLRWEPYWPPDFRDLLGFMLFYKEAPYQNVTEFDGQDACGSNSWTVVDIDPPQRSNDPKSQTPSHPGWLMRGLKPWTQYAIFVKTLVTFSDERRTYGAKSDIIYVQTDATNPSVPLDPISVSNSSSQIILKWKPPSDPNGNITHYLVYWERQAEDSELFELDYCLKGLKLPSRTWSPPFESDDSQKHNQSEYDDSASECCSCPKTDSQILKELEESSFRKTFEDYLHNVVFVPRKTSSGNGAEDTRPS

As for `CCCCCCCCCCCCCC(=O)O[C@@H]1[C@@H](C)[C@@]2(O)[C@@H](C=C(CO)C[C@]3(O)C(=O)C(C)=C[C@@H]23)[C@@H]2C(C)(C)[C@]12OC(C)=O` [TPA, reference compound], in data set [1], the “Phosphorylated (active) isoforms MAPK-1 and MAPK-2” value is “clearly detected”.
As to “IGF-1: Recombinant human IGF-1 from Boehringer Mannheim”, in data set [2] (MCF-7 cells, 5 mins., ATA, EB each at 300 μg/ml, IGF-1 at 20 ng/ml), the “Tyrosine phosphorylation of a 185 kDa protein(s)” value is reported as “enhanced tyrosine phosphorylation of a 185 kDa protein(s)”. In data set [2] (MCF-7 cells, 5 mins., IGF-1 at 20 ng/ml, scanned autoradiogram from FIG. 8B, Control 100), the “pp185 (arbitrary units)” value was 1,751 arbitrary units. For the same molecule, in the data set on MCF-7 cells (30 μg CX, IGF-1 20 μg/ml), the Percent dead cells is recorded as 15 ± 4%. Further, in the data set with IRS-1, the “Association of IRS-1 with Grb-2” value was “IRS-1 co-precipitated with Grb2”, the “Association of p85 subunit of PI3-k with IRS-1” value is “p85 precipitates with IRS-1” and the “Phosphorylation of IRS-1” value is “stimulated the phosphorylation of IRS-1”. Moreover, the “Association of p85 subunit of PI3-k with IRS-2” value in the data set with IRS-2 is reported as “p85 precipitates”. Also, the “Phosphorylated (active) isoforms MAPK-1 and MAPK-2” value in data set [1] was “clearly detected”.
For `C[C@@H]1C[C@@H]([C@H](O)CC2CC(=O)NC(=O)C2)C(=O)[C@@H](C)C1` [CX, cycloheximide, reference compound], the Percent dead cells in the data set with MCF-7 cells (CX only, 30 μg, Control without CX 10 ± 3) is given as 56 ± 5%. The cytotoxicity at 30 µg/mL in the data set on MCF-7 cells (Homo sapiens, MCF7, 48 h, read-out: cells dead after 48 hours) is 60 to 70%.
With `[Na+].[Na+].[Na+].[O]=[V]([O-])([O-])[O-]` [Vanadate, sodium orthovanadate, reference compound], the “Effect on phosphorylation of p185 induced by IGF-1, ATA and EB” value in data set [2] (MCF-7 cells pre-incubated 3 hours with 50 μM vanadate) is reported as “markedly enhanced”. For the same molecule, the “Effect on IR phosphorylation induced by insulin” value at IR is “enhances”.
